8 molecules from article PMC10398414, “Isolation and characterization of β-transducin repeat-containing protein ligands screened using a high-throughput screening system” (Oncology Research, 2023) can be followed below.

Square brackets hold non-standard residues; d marks the D form. Ends that are not written are not given here. Peptide text beside a SMILES is read from it. * marks the point of attachment. pS = N[C@@H](COP(=O)(O)O)C(=O)O; Cbz = O=C(OCc1ccccc1)*

The test system of data set [1] is β-catenin and phosphorylated β-catenin in HeLa cells. The data set can be described thus: Analysis of β-catenin degradation by immunoblotting in HeLa cells. The settings on record: 3 h with compound. The format is cell-based. Here is the method:
(§1) Immunoblotting followed by in vitro ubiquitination assay was performed using anti-human Wee1A [30]. Immunoblotting in the analysis of protein degradation was performed using anti-phospho-β-catenin (Ser33/37/Thr41) antibody (1:1000, Cell Signaling Technology, Danvers, MA, USA), anti-phospho-IκBα (Ser32) (14D4), Rabbit mAb (1:1000, Cell Signaling Technology), anti-β-catenin (D10A8) (1:1000, Cell Signaling Technology), anti-IκBα antibody (1:1000, Cell Signaling Technology), and Goat polyclonal anti-rabbit IgG antibody (1:5000, Proteintech, Am Klopferspitz, Planegg-Martinsried, Germany). The transferred membrane was incubated with specific antibody, then detected using Super Signal West Pico chemiluminescent substrate (Thermo Fisher Scientific) and FUSION SOLO S (VILBER LOURMAT/MS equipment, Zi Sud torcy, Marne-la-vallee, France). The quantification of immunoblotting results was performed using ImageJ software.
For examining the effect on degradation of β-catenin, HeLa cells were cultured in the presence or absence of the compound for 3 h. The cell extracts were examined by immunoblotting using antibodies against β-catenin and phosphorylated β-catenin (p-β-catenin).
(In general: A western blot detects proteins with antibodies after separation by electrophoresis.)

Data set [2] addresses SCF^β-TrCP1 (Homo sapiens, UniProt Q9Y297). The data set can be described thus: In vitro ubiquitination assay (GST-Wee1KR substrate, immunoblotting). The format is biochemical. Particulars: immunoblots quantitated by ImageJ. Here is the method:
Components of SCF complex (SKP1, Cul1, Rbx1, and hemagglutinin (HA)-tagged β-TrCP) were expressed in HEK293T cells. Anti-HA antibody was added into the SCF complexes expressed HEK 293T cell lysate and rotated at 4°C for 1 h. Aliquots of this mixture were added to protein G beads and rotated at 4°C for 30 min. After washing the beads in cell lysis buffer three times, the tube was centrifuged at 20,400 × g for 5 min and the supernatant was discarded. The protein on the beads was used as recombinant SCF^β-TrCP complexes. Aliquots of SCF complexes bound on the beads were then added to ubiquitination reactions (10 mM Tris pH = 7.5, 5 mM MgCl2, 1 mM DTT, 1 mM ATP, 20 mM creatine phosphate, 0.1 mg/mL creatine kinase, 5 mM NaF, 1 mM Na3VO4, 2 mg/mL ubiquitin, 0.5 μg E1 enzyme, 2 μg E2 enzyme) in a final volume of 30 µL. Compounds of 100 µM final concentration were added to reactions, and GST-Wee1KR was added as substrate 15 min later. The reaction mixtures were incubated at 37°C for 2 h and were further examined by immunoblotting.
as §1

The test system of data set [3] is TCF transcription in HeLa cells. The data set can be described thus: TOP/FOP-Flash luciferase reporter assay (TCF transcription activity). The format is cell-based. Particulars: 24 h with compound. Here is the method: HeLa cells were seeded on 96-well plates. Subsequently, TCF and NF-κB transcription activity was examined by the luciferase assay system. T-cell Factor (TCF) transcription activity was assessed by TOP/FOP-Flash luciferase reporter assay, using a pRL-SV40 vector as an internal control. TOP FLASH contains three […] and a firefly luciferase reporter with a minimal promoter and an upstream of the luciferase reporter gene. FOP FLASH is similar to TOP reporter; however, it has three mutated TCF-binding sites and is used as a negative control. The average ratio of TOP to renilla luciferase divided by FOP was used as TCF activity. TOP flash (Sigma-Aldrich, Temecula, CA, USA) or FOP FLASH reporter plasmids (Sigma-Aldrich) and pRL-sv40 renilla luciferase reporter (Promega) were co-transfected into HeLa cells using Lipofectamine 3000 reagent kit (Thermo Fisher Scientific). Furthermore, 24 h after transfection, cells were cultured with the compounds of different dilutions for another 24 h. The cells were lysed, and the luminescence was measured using the Luciferase Assay System (Promega). A minimum of three samples were taken for each sample.
(In general: In a reporter assay the amount or activity of a reporter protein is the signal.)

Data set [4] relates to IκBα and phosphorylated IκBα in HeLa cells. Description: TNF-α induced IκBα degradation by immunoblotting in HeLa cells. The class given is cell-based. The settings on record: 30 min compound then TNF-α 40 ng/mL 5 min. Here is the method:
as §1
For examining the effect on degradation of IκBα, HeLa cells were cultured in the presence or absence of the compound for 30 min. TNF-α (Cat. No. TNA-H4211, Acro Biosystems, Newark, DE, USA) was added (40 ng/mL) and incubated for another 5 min. The cell extracts were analyzed using immunoblotting using antibodies against IκBα and phosphorylated IκBα (p-IκBα).

Data set [5] relates to NF-κB transcription activity in HeLa cells. The data set can be described thus: NF-κB luciferase reporter assay (pGL-4.32), TNF-α induced. The format is cell-based. The settings on record: for NF-κB transcription, % of that of the control group (DMSO, TNF-α): 20 μM; for TNF-α induced NF-κB activation of transcription: 24 h compound then TNF-α 4 h. Here is the method:
For NF-κB transcription activity, PGL-4.32 contains five copies of the NF-κB response element, which is responsible for the transcription of the luciferase reporter gene, with pRL-SV40 as the internal control. NF-κB transcription activity was determined by firefly luciferase expression and normalized by renilla luciferase level. pGL-4.32 reporter plasmids (Promega) and pRL-sv40 renilla luciferase reporter (Promega) were co-transfected into HeLa cells using Lipofectamine 3000 reagent kit. Subsequently, 24 h after transfection, cells were cultured with the compounds of different dilutions for another 24 h. Furthermore, TNF-α was added, and the plates were cultured for another 4 h. The cells were lysed, and the luminescence was measured using the Luciferase Assay System. A minimum of three samples were taken for each sample.

For data set [6], the system named is HeLa cells. Description: Cytotoxicity / cell death. The class given is cell-based. Particulars: data not shown.
Data set [7] concerns the target T1, mAG-β-TrCP1 (Homo sapiens, UniProt Q9Y297).
T1 construct: made in house; host or cells: Express SF+ insect cells (baculovirus, pFASTBacI); crude lysate used
T1 sequence (Q9Y297 1-605): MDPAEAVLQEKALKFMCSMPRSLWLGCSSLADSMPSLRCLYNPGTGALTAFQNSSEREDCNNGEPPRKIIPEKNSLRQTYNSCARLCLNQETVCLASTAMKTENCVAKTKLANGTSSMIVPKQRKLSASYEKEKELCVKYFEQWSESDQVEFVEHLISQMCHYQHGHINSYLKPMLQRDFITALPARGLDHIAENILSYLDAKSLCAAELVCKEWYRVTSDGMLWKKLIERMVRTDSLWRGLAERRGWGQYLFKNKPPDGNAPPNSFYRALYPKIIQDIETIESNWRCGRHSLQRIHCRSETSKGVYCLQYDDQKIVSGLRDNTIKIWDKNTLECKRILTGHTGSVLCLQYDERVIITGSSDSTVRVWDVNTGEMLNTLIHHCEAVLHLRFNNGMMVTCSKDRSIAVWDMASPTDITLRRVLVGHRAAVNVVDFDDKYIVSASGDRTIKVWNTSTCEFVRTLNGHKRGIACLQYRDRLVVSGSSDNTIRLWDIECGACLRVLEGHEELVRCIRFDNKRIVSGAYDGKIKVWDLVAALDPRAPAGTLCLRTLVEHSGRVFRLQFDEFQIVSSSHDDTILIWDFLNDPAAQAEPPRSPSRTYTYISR
Description: High-throughput screening system for β-TrCP ligands (mAG-β-TrCP1 binding to plate-fixed C-IκB-PP15). The settings on record: serially diluted free phosphopeptide in cell lysate. The source says:
NotI digested mAG-β-TrCP1 (mAG, N-terminally fused fluorescent monomeric Azami Green) fragment was inserted to NotI pFASTBacI (Gibco) site for obtaining recombinant plasmid containing mAG-β-TrCP1. The recombinant plasmids were then transformed into DH10Bac cells and the obtained recombinant bacmids were transfected into Express SF+ Cells. Phosphopeptides C-IkB pp15 with target sequences (seq: CDDRHDpSGLDpSMKDEE) for β-TrCP-dependent binding or its negative control C-IkB s15 (seq: CDDRHDSGLDSMKDEE) were used in the establishment of the high-throughput system. These phosphopeptides, and their non-phosphorylated derivatives, were chemically synthesized at RIKEN CBS, Research Resources Center, Japan. C-IkB pp15 or C-IkB s15 (100 μL/well of 10 μM solution) were covalently attached to maleimide-activated 96-well plates (Themo Fisher Scientific, Waltham, MA, USA) overnight. […] After washing, bound mAG-β-TrCP1 was quantitated using spectrofluorometry (excitation, 470 nm; emission, 525 nm).
C-IκB-PP15 is a phosphopeptide whose sequence is derived from IκB that is known to bind to β-TrCP. […] After enough binding and washing, the bound mAG-β-TrCP1 was quantitated using spectrofluorometry. […] When the small molecules compete with the phosphopeptides for mAG-β-TrCP1 binding, there was less plate fluorescence (Fig. 1A).

Sequence of SCF^β-TrCP1 (P63208 whole entry partner, one chain of several): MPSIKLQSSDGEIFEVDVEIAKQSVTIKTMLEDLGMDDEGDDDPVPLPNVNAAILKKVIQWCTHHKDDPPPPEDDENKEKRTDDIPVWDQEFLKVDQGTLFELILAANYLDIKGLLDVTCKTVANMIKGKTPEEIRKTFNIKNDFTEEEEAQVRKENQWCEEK
Sequence of SCF^β-TrCP1 (Q13616 whole entry partner, one chain of several): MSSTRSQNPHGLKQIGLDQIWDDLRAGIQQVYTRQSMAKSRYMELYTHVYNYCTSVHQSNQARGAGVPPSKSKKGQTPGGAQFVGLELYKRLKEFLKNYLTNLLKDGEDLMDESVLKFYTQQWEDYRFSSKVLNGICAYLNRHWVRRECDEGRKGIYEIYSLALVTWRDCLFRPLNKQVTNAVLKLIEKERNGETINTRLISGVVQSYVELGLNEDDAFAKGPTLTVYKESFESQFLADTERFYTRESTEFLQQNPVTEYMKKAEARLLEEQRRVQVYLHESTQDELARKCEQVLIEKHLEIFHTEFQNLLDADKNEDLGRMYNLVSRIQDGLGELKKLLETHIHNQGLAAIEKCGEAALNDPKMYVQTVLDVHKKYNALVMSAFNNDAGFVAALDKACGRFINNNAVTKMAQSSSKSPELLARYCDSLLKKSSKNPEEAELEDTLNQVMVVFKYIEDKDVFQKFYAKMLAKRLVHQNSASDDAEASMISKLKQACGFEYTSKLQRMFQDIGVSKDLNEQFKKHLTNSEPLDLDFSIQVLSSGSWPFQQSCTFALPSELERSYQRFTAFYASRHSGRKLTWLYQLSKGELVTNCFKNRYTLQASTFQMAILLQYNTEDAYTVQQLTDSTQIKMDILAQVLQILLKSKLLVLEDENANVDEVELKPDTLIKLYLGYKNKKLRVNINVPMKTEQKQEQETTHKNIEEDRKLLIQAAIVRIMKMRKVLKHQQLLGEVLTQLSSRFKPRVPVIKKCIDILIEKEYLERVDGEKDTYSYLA
Sequence of SCF^β-TrCP1 (P62877 whole entry partner, one chain of several): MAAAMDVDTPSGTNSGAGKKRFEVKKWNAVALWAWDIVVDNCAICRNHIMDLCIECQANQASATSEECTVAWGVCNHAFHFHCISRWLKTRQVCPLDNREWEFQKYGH

As to `COC(=O)c1ccc(-c2ccc(/C=C3\C(=O)N(c4cccc(C(=O)O)c4)N=C3C(F)(F)F)o2)cc1` [NPL62039-01], in data set [1], the “level of phosphorylated β-catenin (p-β-catenin)” value (shortened to “level … (p-β-catenin)”) is “promoted the accumulation” and the “level of β-catenin” value was “did not significantly affect”. Also, in data set [2], the IC50 (in general, the midpoint of a concentration-inhibition curve) is 9 µM. Further, the TCF transcription entry in data set [3] is “did not cause a high increase”.

Consider `O=C(O)c1ccc(-c2ccc(/C=C3\C(=O)N(c4ccc(C(=O)O)cc4)N=C3C(F)(F)F)o2)cc1` [NPL72038-01], for which, in data set [1], the “level … (p-β-catenin)” value is “promoted the accumulation” and the “level of β-catenin” value is “did not significantly affect”. In data set [2], this molecule came in with a half-inhibitory concentration (IC50) of 7 µM. For the same molecule, the TCF transcription entry in data set [3] was “did not cause a high increase”.

Take `O=C(O)c1ccc(N2N=C(Cc3ccccc3)/C(=C/c3ccc(-c4ccccc4F)o3)C2=O)cc1` [GS143, reference compound]: in data set [1], the “level … (p-β-catenin)” value was “did not affect” and the “level of β-catenin” value is on record as “did not affect”. Further, in data set [2], the IC50 worked out at 25 µM. In addition, the TCF transcription entry in data set [3] was “did not affect TCF transcription”. Besides, in data set [4], the “level of IκBα after TNF-α” value is recorded as “caused the inhibition of the degradation” and the “level of phosphorylated IκBα (p-IκBα) after TNF-α” value is reported as “caused the inhibition of the degradation”. The “NF-κB transcription, % of that of the control group (DMSO, TNF-α)” value in data set [5] was ~ 40%.

The molecule `CC1=NN(c2ccc(C(=O)O)cc2)C(=O)/C1=C\c1ccc(-c2cc(C)c(C)cc2[N+](=O)[O-])o1` [NPL62020-01] returned an IC50 in data set [2] of 30 µM. In addition, the non-specific cytotoxicity result in data set [6] is “cytotoxicity only at high concentration”. Also, in data set [5], the “NF-κB transcription, % of that of the control group (DMSO, TNF-α)” value was “approximately 20%” and the “TNF-α induced NF-κB activation of transcription” value is given as “reduced NF-κB activation dose-dependently”.

Turning to “CDDRHDpSGLDpSMKDEE (CDDRHD[pS]GLD[pS]MKDEE) [C-IκB-PP15]”, the “binding of mAG-β-TrCP1 to plate-fixed phosphopeptide in presence of free phosphopeptide” value in data set [7] was “concentration-dependent binding decrease”.

For `CC(C)C[C@@H](C=O)NC(=O)[C@H](CC(C)C)NC(=O)[C@H](CC(C)C)NC(=O)OCc1ccccc1` [MG132, reference compound] (Cbz-Leu-Leu-Leu-aldehyde), in data set [1], the “level … (p-β-catenin)” value is listed as “caused the accumulation” and the “level of β-catenin” value is recorded as “caused the accumulation”. In data set [4], the “level of IκBα after TNF-α” value is reported as “caused the inhibition of the degradation” and the “level of phosphorylated IκBα (p-IκBα) after TNF-α” value was “caused the inhibition of the degradation”.

Take `CC1=NN(c2ccc(C(=O)O)cc2)C(=O)/C1=C\c1ccc(-c2ccc3c(c2)C(=O)N(C(C)C)C3=O)o1` [NPL42040-01]: the half-inhibitory concentration (IC50) in data set [2] turned out to be 13 µM. Moreover, the non-specific cytotoxicity result in data set [6] is given as “cytotoxicity only at high concentration”. Further, the “TNF-α induced NF-κB activation of transcription” value in data set [5] is given as “reduced NF-κB activation dose-dependently”.

B1: Wnt3a: molecule that stimulates classic Wnt signaling (protein, UniProt P56704 19-352, looked up)
Protein Wnt-3a: SYPIWWSLAVGPQYSSLGSQPILCASIPGLVPKQLRFCRNYVEIMPSVAEGIKIGIQECQHQFRGRRWNCTTVHDSLAIFGPVLDKATRESAFVHAIASAGVAFAVTRSCAEGTAAICGCSSRHQGSPGKGWKWGGCSEDIEFGGMVSREFADARENRPDARSAMNRHNNEAGRQAIASHMHLKCKCHGLSGSCEVKTCWWSQPDFRAIGDFLKDKYDSASEMVVEKHRESRGWVETLRPRYTYFKVPTERDLVYYEASPNFCEPNPETGSFGTRDRTCNVSSHGIDGCDLLCCGRGHNARAERRREKCRCVFHWCCYVSCQECTRVYDVHTCK
On to B1, for which the TCF transcription entry in data set [3] is “increased”.
